Measurements: a melting point compilation (Tetko et al.)
Residues, ends and D or L forms follow the SMILES beside them. *: point of attachment. Boc = CC(C)(C)OC(=O)*; Bn = c1ccc(C*)cc1

Work on `COc1cc(OC)c(/C=C/C(c2ccc(OC)c(NC(=O)C(C)(C)OC(C)=O)c2)S(=O)(=O)C(/C=C/c2c(OC)cc(OC)cc2OC)c2ccc(OC)c(NC(=O)C(C)(C)OC(C)=O)c2)c(OC)c1` (stereo not drawn) yielded a melting point of 148 to 150 °C.
For `CCCCCCCCCS(=O)(=O)c1cc2c3cc(S(=O)(=O)CCCCCCCCC)c(S(=O)(=O)CCCCCCCCC)cc3c3cc(S(=O)(=O)CCCCCCCCC)c(S(=O)(=O)CCCCCCCCC)cc3c2cc1S(=O)(=O)CCCCCCCCC`, the melting point was 202 °C.
Molecule `CN=S(=O)(Cc1ccc(Cl)nc1)c1nc(-c2ccc(OC)cc2)cs1` (stereo not drawn) has a melting point of 160 to 163 °C.
`CCC(CO)Sc1nc(Nc2ccc(S(C)(=N)=O)cc2)ncc1Br` (mixture of isomers) gave a melting point of 175 to 180 °C.
With `CC(C)c1ccc(S(=O)(=O)OC(c2cc(C(OS(=O)(=O)c3ccc(C(C)C)cc3)(C(F)(F)F)C(F)(F)F)cc(C(OS(=O)(=O)c3ccc(C(C)C)cc3)(C(F)(F)F)C(F)(F)F)c2)(C(F)(F)F)C(F)(F)F)cc1` the melting point was 105 °C.
In the case of `O=C(NCC(O)CO)c1c(I)c(C(=O)NCC(O)CO)c(I)c(N(CCCN(C(=O)CO)c2c(I)c(C(=O)NCC(O)CO)c(I)c(C(=O)NCC(O)CO)c2I)C(=O)CO)c1I` (stereo not drawn), the melting point is reported as 234 to 236 °C.
`COc1cc(OC)c(/C=C/C(c2ccc(OC)c(NC(=O)c3ccc(N)cc3)c2)S(=O)(=O)C(/C=C/c2c(OC)cc(OC)cc2OC)c2ccc(OC)c(NC(=O)c3ccc(N)cc3)c2)c(OC)c1` (stereo not drawn) gave a melting point of 137 to 140 °C.
In the case of `Cc1cc(F)c(-n2nc(C(F)(F)F)nc2NC(=O)C(F)(F)F)cc1C(SC(c1cc(-n2nc(C(F)(F)F)nc2NC(=O)C(F)(F)F)c(F)cc1C)C(F)(F)F)C(F)(F)F` (stereo not drawn), the melting point is reported as 122 to 125 °C.
`O=C(OCCCOC(=O)C(OCc1ccc(-c2ccc(Cl)cc2)cc1)(C(F)(F)F)C(F)(F)F)C(OCc1ccc(-c2ccc(Cl)cc2)cc1)(C(F)(F)F)C(F)(F)F` gave a melting point of 93 to 94 °C.
`Cc1c(Nc2c(C#N)cnc3sc(C4=CCN(C)CC4)cc23)ccc2[nH]ccc12` gave a melting point of 230 °C.
Work on `C=CC(=O)NCNC(=O)C=C` yielded a melting point of 185 °C.
For `Cc1nc(-c2cncc(F)c2)sc1NC(=O)C(C)CS(C)(=O)=NC#N` (stereo not drawn), the melting point was 75 to 81 °C.
`CN=S(=O)(c1nc(-c2ccc(F)cc2)cs1)C(C)c1ccc(C(F)(F)F)nc1` (stereo not drawn) showed a melting point of 89 to 94 °C.
For `CCCCCCCCCCCCCCCCS(=O)(=O)Nc1cccc2ccc(O)c(NS(=O)(=O)c3ccc(NC(C)=O)c4c(O)c(N=Nc5ccccc5OC)ccc34)c12`, the melting point was 177 to 180 °C.
With `CCCCCCCCCCCCNC(=O)c1cccc(Sc2c(Nc3cc(C(=O)NCCCCCCCCCCCC)ccc3Cl)nn(-c3c(Cl)cc(Cl)cc3Cl)c2OS(=O)(=O)c2ccccc2)c1` the melting point was 112 to 114 °C.
Work on `Cc1c(SCCN2CCOCC2)ccnc1CSc1nc2ccccc2n1CC(=O)N(C)C` yielded a melting point of 178 to 180 °C.
`CCOCc1nc(C(C)(C)O)c(C(=O)OCc2oc(=O)oc2C)n1Cc1ccc(-c2ccccc2-c2nnnn2C(c2ccccc2)(c2ccccc2)c2ccccc2)cc1` gave a melting point of 129 to 130 °C.
In the case of `CC1CC2C3CCC4=CC(=O)C=CC4(C)C3(Cl)C(O)CC2(C)C1(O)C(=O)CO` (stereo not drawn), the melting point is reported as 217 to 222 °C.
In the case of `N=C(Nc1ccc2[nH]cc(C3=CCN4CCCC4C3)c2c1)c1cccs1` (stereo not drawn), the melting point is reported as 122 to 124 °C.
For `Cc1cc(C(C)(C)C)c(O)c(C)c1CCCCCCCCCCCCCCCCCCCOCCCCCCCCCCCCCCCCCCCc1c(C)cc(C(C)(C)C)c(O)c1C`, the melting point was 52 °C.
`O=C(Oc1cccc2cc3cccc(OC(=O)c4ccccc4Oc4ccccc4)c3c(OC(=O)c3ccccc3Oc3ccccc3)c12)c1ccccc1Oc1ccccc1` showed a melting point of 110 °C.
Molecule `CC(CC(CC(Sc1cc(C(C)(C)C)c(O)c(C(C)(C)C)c1)Sc1cc(C(C)(C)C)c(O)c(C(C)(C)C)c1)Sc1cc(C(C)(C)C)c(O)c(C(C)(C)C)c1)Sc1cc(C(C)(C)C)c(O)c(C(C)(C)C)c1` (stereo not drawn) has a melting point of 160 to 162 °C.
Work on `CCCc1[nH]c2ccccc2c1C1(c2ccc(N(CC)CC)cc2OCCCCCCCCCCOc2cc(N(CC)CC)ccc2C2(c3c(CCC)[nH]c4ccccc34)OC(=O)c3ccccc32)OC(=O)c2ccccc21` (stereo not drawn) yielded a melting point of 116 to 118 °C.
`COC(=O)COc1cc(F)ccc1[N+](=O)[O-]` gave a melting point of 85 to 87 °C.
With `CC(C)[C@H](NC(=O)N(C)Cc1csc(N)n1)C(=O)N[C@@H](Cc1ccccc1)[C@H](O)[C@@H](O)[C@H](Cc1ccccc1)NC(=O)[C@@H](NC(=O)N(C)Cc1nccs1)C(C)C` the melting point was 108 to 111 °C.
`CCOC(=O)C=Cc1cc2cc(OC)ccc2[nH]c1=O` gave a melting point of 209 to 211 °C.
`CCOC(=O)c1cnc2snc(C)c2c1N(C)S(=O)(=O)c1ccc(Oc2ccncc2)cc1` showed a melting point of 57 to 60 °C.
Molecule `COCCOCOc1cc(C(ON=C(C(=O)O)c2csc(NC(c3ccccc3)(c3ccccc3)c3ccccc3)n2)C(=O)OC(c2ccccc2)c2ccccc2)cc(C#N)c1OCOCCOC` (stereo not drawn) has a melting point of 158 °C.
For `CN1CCC(c2nn(-c3ccncc3)c3ccccc23)CC1`, the melting point was 205 to 207 °C.
`Cc1c(C2=CC(c3c(C)n(Cc4ccc(Cl)cc4)c4ccc([N+](=O)[O-])cc34)(c3c(C)n(Cc4ccc(Cl)cc4)c4ccc([N+](=O)[O-])cc34)OC2=O)c2cc([N+](=O)[O-])ccc2n1Cc1ccc(Cl)cc1` showed a melting point of 227 to 228 °C.
For `CC(C)C(NC(=O)C(Cc1ccc(OCc2ccccc2)cc1)NC(=O)C(COCc1ccccc1)NC(=O)C(Cc1c[nH]c2ccccc12)NC(=O)OC(C)(C)C)C(=O)O` (stereo not drawn) (Boc-WS(Bn)Y(Bn)V-OH; configuration not given here), the melting point was 98 to 100 °C.
With `CC(C)CCCC(C)CCC1(CCC(C)CCCC(C)C)c2cc(Br)ccc2-c2ccc(-c3nc4cc5sc(-c6ccc7c(c6)C(CCC(C)CCCC(C)C)(CCC(C)CCCC(C)C)c6cc(Br)ccc6-7)nc5cc4s3)cc21` (stereo not drawn) the melting point was 163 to 166 °C.
With `CC(C)c1oncc1S(=O)(=O)c1ccc(O)cc1` the melting point was 129 to 131 °C.
With `O=S(=O)(C(/C=C/c1c(F)c(F)c(F)c(F)c1F)c1c(F)c(F)c(F)c(F)c1F)C(/C=C/c1c(F)c(F)c(F)c(F)c1F)c1c(F)c(F)c(F)c(F)c1F` (stereo not drawn) the melting point was 137 to 139 °C.
In the case of `CCOC(CN1C(=O)C2=C(c3cc4cc(C(C)(C)C)cc(C(C)(C)C)c4o3)N(CC(OCC)OCC)C(=O)C2=C1c1cc2cc(C(C)(C)C)cc(C(C)(C)C)c2o1)OCC`, the melting point is reported as 194 to 196 °C.
Molecule `CC(C)(O)CON1C(C)(C)CC(CCCCNc2nc(NCCCCC3CC(C)(C)N(OCC(C)(C)O)C(C)(C)C3)nc(NCCCCC3CC(C)(C)N(OCC(C)(C)O)C(C)(C)C3)n2)CC1(C)C` has a melting point of 172 to 176 °C.
`CCOC(=O)c1cnc2c(c(C)nn2C)c1NCS(=O)(=O)c1ccc(Oc2ccc(Cl)cc2)cc1` showed a melting point of 52 to 55 °C.
With `CC(=O)OCC1OC(SCCCCCCOC2CCC3(C)C(=CCC4C3CCC3(C)C(C(C)CCCC(C)C)CCC43)C2)C(OC(C)=O)C(OC(C)=O)C1OC(C)=O` (stereo not drawn) the melting point was 103 to 104 °C.
Work on `Cc1ccc(S(=O)(=O)N2CCN(S(=O)(=O)c3ccc(C)cc3)CCN(S(=O)(=O)c3ccc(C)cc3)CC(C)N(S(=O)(=O)c3ccc(C)cc3)CCN(S(=O)(=O)c3ccc(C)cc3)CC2)cc1` (stereo not drawn) yielded a melting point of 245 to 247 °C.
`O=C(c1ccccc1)c1ccc(C(Cl)(Cl)Cl)cc1` gave a melting point of 109 to 111 °C.
Molecule `CCCCCCCCOc1ccc(NS(=O)(=O)c2cc(C(C)(C)CC(C)(C)C)ccc2OCCCCCCCC)cc1S(=O)(=O)NCC(C)c1nn2nc(C)c(Cl)c2[nH]1` (stereo not drawn) has a melting point of 129 to 131 °C.
In the case of `O=C(O)CCCOc1c(Cl)cccc1Cl`, the melting point is reported as 66 to 67 °C.
For `O=S(=O)(C(/C=C/c1ccc(I)cc1)c1ccc(Br)cc1)C(/C=C/c1ccc(I)cc1)c1ccc(Br)cc1` (stereo not drawn), the melting point was 201 to 203 °C.
`O=S1(=O)c2ccccc2N(c2ccccc2)c2ccc(C=Cc3ccc(-c4ccc(C=Cc5ccc6c(c5)S(=O)(=O)c5ccccc5N6c5ccccc5)cc4)cc3)cc21` showed a melting point of 392 °C.
With `COc1cc(OC)c(/C=C/C(c2ccc(OC)c(NCCC(=O)O)c2)S(=O)(=O)C(/C=C/c2c(OC)cc(OC)cc2OC)c2ccc(OC)c(NCCC(=O)O)c2)c(OC)c1` (stereo not drawn) the melting point was 156 to 158 °C.
For `O=C(OCC(OC(=O)C1CCCCC1)C(OC(=O)C1CCCCC1)C(OC(=O)C1CCCCC1)C(COC(=O)C1CCCCC1)OC(=O)C1CCCCC1)C1CCCCC1` (stereo not drawn), the melting point was 135 to 140 °C.
In the case of `[C-]#[N+]c1c(C)cccc1C(C)(C)C`, the melting point is reported as 60 to 62 °C.
`CCCCNC1=CCC(C)n2c1ncc(C(=O)O)c2=O` (stereo not drawn) gave a melting point of 135 to 137 °C.
Work on `CCNC(=O)[C@@H]1CCCN1C(=O)[C@H](CCCNC(=N)N)NC(=O)[C@H](CC(C)C)NC(=O)[C@@H](Cc1ccc2ccccc2c1)NC(=O)[C@H](Cc1ccc(O)cc1)NC(=O)[C@H](CO)NC(=O)[C@H](Cc1c[nH]c2ccccc12)NC(=O)[C@H](Cc1c[nH]cn1)NC(=O)[C@@H]1CCC(=O)N1` yielded a melting point of 180 to 190 °C.
`CC(C)[C@H](NC(=O)N(C)Cc1csc(NC(=O)OC(C)(C)C)n1)C(=O)N[C@@H](Cc1ccccc1)[C@H](O)[C@@H](O)[C@H](Cc1ccccc1)NC(=O)[C@@H](NC(=O)N(C)Cc1csc(NC(=O)OC(C)(C)C)n1)C(C)C` gave a melting point of 138 to 140 °C.
`CC(CCC(=O)O)C1CCC2C3C(O)CC4CC(NC(=O)CNC(=O)CN(CCN(CC(=O)O)CC(=O)O)CCN(CC(=O)O)CC(=O)O)CCC4(C)C3CC(O)C12C` (stereo not drawn) gave a melting point of 120 to 125 °C.
Molecule `CCCCCCCCCCCCCCCCCCN(CCCCCCCCCCCCCCCCCC)C(=O)c1cc(NS(=O)(=O)c2ccc(Cl)nc2)c2ccccc2c1O` has a melting point of 80 to 83 °C.
Molecule `CCCCCCCCCCCCN(CCCCCCCCCCCC)S(=O)(=O)c1cc(NS(=O)(=O)c2ccc(NC(C)=O)c3c(O)c(N=Nc4ccccc4OC)ccc23)c(O)c2ccccc12` has a melting point of 200 to 202 °C.
`O=P(Oc1c(Br)cc(Br)cc1Br)(Oc1c(Br)cc(Br)cc1Br)Oc1c(Br)cc(Br)cc1Br` gave a melting point of 223 to 226 °C.
Work on `CCOC1OC(CO)C(OC2OC(COC(C)=O)C(OC3OC(COC(C)=O)C(OC(C)=O)C(OC(C)=O)C3OC(C)=O)C(OC(C)=O)C2OC(C)=O)C(O)C1NC(C)=O` (stereo not drawn) yielded a melting point of 260 to 262 °C.
`CC(C)(C)OC(=O)NC(Cc1cc(I)c(Oc2cc(I)c(O)c(I)c2)c(I)c1)C(=O)O` (stereo not drawn) gave a melting point of 212 °C.
With `CC(=O)OCC1OC(n2cc(C3=C(c4cn(S(=O)(=O)c5ccccc5)c5ncccc45)C(=O)N(COCc4ccccc4)C3=O)c3cccnc32)C(OC(C)=O)C(OC(C)=O)C1OC(C)=O` (stereo not drawn) the melting point was 108 to 110 °C.
For `CC(C)(C)c1cc(-c2cc(C(C)(C)C)cc(C(C)(C)C)c2Op2oc3ccccc3c3ccccc3o2)c(Op2oc3ccccc3c3ccccc3o2)c(C(C)(C)C)c1`, the melting point was 80 °C.
